In test [1] the test system is Phosphorylated Ribosomal Protein S6 (RPS6). Put plainly: THP-1 RPS6 ELISA Assay. The test is classed as cell-based, Human. The conditions noted are these: THP-1 cells, read-out: PI3Kγ_THP1_RPS6_ELISA IC50. In a few lines: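 IC50 values come from a curve of percent inhibition against log compound concentration, using phospho-RPS6 ELISA (450 nm) on THP-1 lysates. Cells were serum-starved overnight, exposed to compound for 2 h at 37 °C, then challenged 15 min with 10 nM MCP-1.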
A general note: An ELISA detects its analyte on a solid surface through an enzyme-linked reagent.

The target in test [2] is PI3Kγ (p110γ) Recombinant Human Protein (Homo sapiens (Human), UniProt P48736). Put plainly: PI3K-γ Scintillation Proximity Assay. The test is classed as biochemical. The conditions noted are these: read-out: PI3Kγ IC50. Summed up:
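Radiometric SPA readout: […] bound to WGA beads after overnight shaking, IC50 derived from % activity of DMSO control. Reaction used human p110γ, 2 μM ATP, 20 μM PIP2, pH 6.7 MOPS buffer with MgCl2, DTT, CHAPS, 2% DMSO, room temperature.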

Test [3] concerns the target PI3Kδ (p110δ/p85α) Recombinant Human Protein (Homo sapiens (Human), UniProt O00329). Put plainly: PI3Kδ Scintillation Proximity Assay. The test is classed as biochemical. Summed up: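 IC50 was fitted to percent solvent-control activity from SPA scintillation counts after WGA bead capture of 33P-labelled lipid product. Reaction: 120 min, room temperature, 3.4 nM p110δ/p85α, 20 μM PIP2, 2 μM ATP with tracer, MOPS pH 6.7 buffer containing MgCl2, DTT, CHAPS, 2% DMSO.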
On the technique in general: Scintillation proximity formats need no separation of bound from free tracer.

IC50 data for 20 compounds are collected here from patent US10479795B2 (Incyte Corporation, priority 2016, dated 2019).

Structures are written as SMILES. Structures can show the parent of a compound that is named as a salt. Where two headings read alike, the source gives them in different places. Bounds are passed on as bounds.

The term IC50 denotes the midpoint of a concentration-inhibition curve.

Chain of PI3Kγ (p110γ) Recombinant Human Protein (P48736 whole entry): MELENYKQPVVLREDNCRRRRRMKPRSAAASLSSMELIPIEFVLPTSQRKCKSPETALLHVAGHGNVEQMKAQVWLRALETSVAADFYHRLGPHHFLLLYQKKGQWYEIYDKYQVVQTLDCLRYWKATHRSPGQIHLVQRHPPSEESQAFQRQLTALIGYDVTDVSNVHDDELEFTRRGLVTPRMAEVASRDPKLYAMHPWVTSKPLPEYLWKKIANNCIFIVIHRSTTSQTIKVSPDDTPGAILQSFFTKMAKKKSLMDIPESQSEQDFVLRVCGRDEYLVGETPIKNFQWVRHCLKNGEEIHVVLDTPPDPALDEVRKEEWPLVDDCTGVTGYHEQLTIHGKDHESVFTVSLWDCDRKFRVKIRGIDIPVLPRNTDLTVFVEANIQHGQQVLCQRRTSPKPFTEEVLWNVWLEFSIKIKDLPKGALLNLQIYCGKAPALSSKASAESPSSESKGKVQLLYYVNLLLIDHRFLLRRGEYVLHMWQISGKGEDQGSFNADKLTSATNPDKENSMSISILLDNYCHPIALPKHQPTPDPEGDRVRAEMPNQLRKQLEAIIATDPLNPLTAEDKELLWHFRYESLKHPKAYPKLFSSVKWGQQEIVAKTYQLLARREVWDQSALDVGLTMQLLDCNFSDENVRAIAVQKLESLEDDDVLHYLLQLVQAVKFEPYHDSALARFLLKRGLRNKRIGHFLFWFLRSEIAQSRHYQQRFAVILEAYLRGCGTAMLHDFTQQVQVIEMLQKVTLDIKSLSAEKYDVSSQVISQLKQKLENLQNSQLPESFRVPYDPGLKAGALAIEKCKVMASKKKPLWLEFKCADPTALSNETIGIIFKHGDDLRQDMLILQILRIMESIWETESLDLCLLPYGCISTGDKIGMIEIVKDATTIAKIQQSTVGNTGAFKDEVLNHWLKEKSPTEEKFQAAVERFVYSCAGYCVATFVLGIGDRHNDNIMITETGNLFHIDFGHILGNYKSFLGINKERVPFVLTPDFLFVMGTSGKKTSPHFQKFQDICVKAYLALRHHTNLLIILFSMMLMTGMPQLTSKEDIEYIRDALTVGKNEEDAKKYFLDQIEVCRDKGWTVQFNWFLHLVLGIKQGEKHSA
Chain of PI3Kδ (p110δ/p85α) Recombinant Human Protein (O00329 whole entry): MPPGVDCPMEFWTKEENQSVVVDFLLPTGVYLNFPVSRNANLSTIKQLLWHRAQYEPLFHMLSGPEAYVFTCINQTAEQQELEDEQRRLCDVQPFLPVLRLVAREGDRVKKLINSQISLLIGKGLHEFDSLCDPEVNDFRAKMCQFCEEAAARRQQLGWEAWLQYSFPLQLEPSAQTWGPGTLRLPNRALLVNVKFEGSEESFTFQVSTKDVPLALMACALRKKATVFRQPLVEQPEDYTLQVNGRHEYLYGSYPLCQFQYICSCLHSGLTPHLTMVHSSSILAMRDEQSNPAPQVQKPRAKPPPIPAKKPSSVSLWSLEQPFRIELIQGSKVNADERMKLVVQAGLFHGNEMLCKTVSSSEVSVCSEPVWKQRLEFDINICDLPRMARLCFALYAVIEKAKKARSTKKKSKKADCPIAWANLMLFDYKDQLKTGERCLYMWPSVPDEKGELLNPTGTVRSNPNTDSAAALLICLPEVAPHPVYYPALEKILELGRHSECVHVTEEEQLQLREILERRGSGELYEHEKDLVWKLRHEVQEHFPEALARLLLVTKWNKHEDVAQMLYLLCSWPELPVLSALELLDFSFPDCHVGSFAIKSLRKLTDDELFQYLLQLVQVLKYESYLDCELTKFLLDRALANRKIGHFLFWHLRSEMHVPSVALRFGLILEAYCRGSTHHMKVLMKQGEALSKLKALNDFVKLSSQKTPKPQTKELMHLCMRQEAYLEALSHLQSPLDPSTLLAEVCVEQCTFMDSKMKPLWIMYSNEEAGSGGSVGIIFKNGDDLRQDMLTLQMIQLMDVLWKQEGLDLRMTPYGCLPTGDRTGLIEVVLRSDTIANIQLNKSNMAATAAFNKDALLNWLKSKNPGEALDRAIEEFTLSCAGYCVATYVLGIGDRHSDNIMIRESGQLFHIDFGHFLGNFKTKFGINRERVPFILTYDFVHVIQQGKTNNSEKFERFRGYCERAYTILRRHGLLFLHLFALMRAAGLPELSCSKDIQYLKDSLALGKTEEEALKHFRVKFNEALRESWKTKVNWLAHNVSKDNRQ
Chain of PI3Kδ (p110δ/p85α) Recombinant Human Protein (P27986 whole entry partner): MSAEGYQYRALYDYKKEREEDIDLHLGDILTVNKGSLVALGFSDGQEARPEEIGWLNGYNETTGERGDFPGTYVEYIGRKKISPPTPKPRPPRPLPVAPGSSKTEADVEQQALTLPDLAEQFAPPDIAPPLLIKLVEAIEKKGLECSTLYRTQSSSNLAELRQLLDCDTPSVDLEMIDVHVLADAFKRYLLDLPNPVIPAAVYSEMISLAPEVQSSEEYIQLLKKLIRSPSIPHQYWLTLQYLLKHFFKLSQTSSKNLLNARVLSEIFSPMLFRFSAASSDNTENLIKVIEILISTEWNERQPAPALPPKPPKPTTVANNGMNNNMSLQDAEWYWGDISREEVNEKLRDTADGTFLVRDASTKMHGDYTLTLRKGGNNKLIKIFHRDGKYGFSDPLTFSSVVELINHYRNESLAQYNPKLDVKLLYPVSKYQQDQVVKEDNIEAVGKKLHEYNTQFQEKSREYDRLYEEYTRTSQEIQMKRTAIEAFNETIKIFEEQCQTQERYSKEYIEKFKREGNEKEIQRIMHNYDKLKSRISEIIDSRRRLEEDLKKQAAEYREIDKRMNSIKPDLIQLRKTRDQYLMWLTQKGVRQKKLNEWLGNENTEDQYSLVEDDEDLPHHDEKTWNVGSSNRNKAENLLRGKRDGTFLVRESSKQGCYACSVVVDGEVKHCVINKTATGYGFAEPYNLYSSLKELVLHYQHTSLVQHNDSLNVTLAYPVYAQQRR

Turning to `Nc1nc(C(F)(F)F)cn2c(-c3ccc(Cl)c(S(=O)(=O)NC45CCC(CO)(C4)C5)c3)cnc12` [Example 399, 5-(8-Amino-6-(trifluoromethyl)imidazo[1,2-a]pyrazin-3-yl)-2-chloro-N-(4-(hydroxymethyl)bicyclo[2.1.1]hexan-1-yl)benzenesulfonamide trifluoroacetate salt], the IC50 is above 1000 nM in test [1] (Homo sapiens), below 100 nM in test [2] and below 100 nM in test [3].

In the case of `Cc1cc(C)c(S(=O)(=O)NC23CCC(CO)(C2)C3)cc1-c1cnc2c(N)nc(C(F)(F)F)cn12` [Example 400, 5-(8-Amino-6-(trifluoromethyl)imidazo[1,2-a]pyrazin-3-yl)-N-(4-(hydroxymethyl)bicyclo[2.1.1]hexan-1-yl)-2,4-dimethylbenzenesulfonamide trifluoroacetate salt], the IC50 in test [1] (Homo sapiens), in test [2] and in test [3] was below 100 nM throughout.

As to `Cc1nc(N)c2ncc(-c3cc(S(=O)(=O)N[C@H]4CC[C@](C)(O)CC4)c(F)cc3C)n2n1` [Example 402, 5-(4-amino-2-methylimidazo[1,2-f][1,2,4]triazin-7-yl)-2-fluoro-N-((1r,4r)-4-hydroxy-4-methylcyclohexyl)-4-methylbenzenesulfonamide trifluoroacetate salt], the IC50 was 100 to 500 nM in test [1], below 100 nM in test [2] and 100 to 500 nM in test [3].

`Cc1nc(N)c2ncc(-c3cc(S(=O)(=O)NCC(C)(C)O)c(Cl)cc3C)n2n1` [Example 403, 5-(4-amino-2-methylimidazo[1,2-f][1,2,4]triazin-7-yl)-2-chloro-N-(2-hydroxy-2-methylpropyl)-4-methylbenzenesulfonamide trifluoroacetate salt]: the half-maximal inhibitory concentration (IC50) in test [1] is below 100 nM; in test [2], below 100 nM; in test [3], 100 to 500 nM.

With `Cc1nc(N)c2ncc(-c3cc(S(=O)(=O)NC45CCC(CO)(CC4)OC5)cc(F)c3C)n2n1` [Example 404, 3-(4-amino-2-methylimidazo[1,2-f][1,2,4]triazin-7-yl)-5-fluoro-N-(1-(hydroxymethyl)-2-oxabicyclo[2.2.2]octan-4-yl)-4-methylbenzenesulfonamide trifluoroacetate salt], the half-maximal inhibitory concentration (IC50) in test [1], in test [2] and in test [3] was below 100 nM each time.

As to `Cc1cc(F)c(S(=O)(=O)N[C@H]2CC[C@H](CC#N)OC2)cc1-c1cnc2c(N)nc(C(F)(F)F)cn12` [Example 405, 5-(8-amino-6-(trifluoromethyl)imidazo[1,2-a]pyrazin-3-yl)-N-((3S,6R)-6-(cyanomethyl)tetrahydro-2H-pyran-3-yl)-2-fluoro-4-methylbenzenesulfonamide trifluoroacetate salt], the results for the IC50 in test [1] (Homo sapiens), in test [2] and in test [3] were below 100 nM, below 100 nM and 100 to 500 nM, respectively.

For `[2H]C([2H])([2H])c1ccc(S(=O)(=O)N[C@H]2CC[C@H](CC#N)OC2)cc1-c1cnc2c(N)nc(C(F)(F)F)cn12` [Example 406, 3-(8-amino-6-(trifluoromethyl)imidazo[1,2-a]pyrazin-3-yl)-N-((3S,6R)-6-(cyanomethyl)tetrahydro-2H-pyran-3-yl)-4-(methyl-d3)benzenesulfonamide], the IC50 in test [1] (Homo sapiens), in test [2] and in test [3] was below 100 nM in each case.

For the compound `Cc1cc(F)c(S(=O)(=O)N2CCCC(CO)C2)cc1-c1cnc2c(N)nc(C(F)(F)F)cn12` (stereo not drawn) [Example 408, (1-((5-(8-Amino-6-(trifluoromethyl)imidazo[1,2-a]pyrazin-3-yl)-2-fluoro-4-methylphenyl)sulfonyl)piperidin-3-yl)methanol], the figures for the IC50 in test [1] (Homo sapiens), in test [2] and in test [3] were above 1000 nM, below 100 nM and 100 to 500 nM, respectively.

Regarding `[2H]C([2H])([2H])c1ccc(S(=O)(=O)N2CCCC(CO)C2)cc1-c1cnc2c(N)nc(C(F)(F)F)cn12` (stereo not drawn) [Example 409, (1-((3-(8-Amino-6-(trifluoromethyl)imidazo[1,2-a]pyrazin-3-yl)-4-(methyl-d3)phenyl)sulfonyl)piperidin-3-yl)methanol], the IC50 in test [1] (Homo sapiens) is 100 to 500 nM; in test [2], below 100 nM; in test [3] it was 100 to 500 nM.

`Cc1cc(Cl)c(S(=O)(=O)N[C@H]2CC[C@](C)(O)CC2)cc1-c1cnc2c(N)nc(C(F)(F)F)nn12` [Example 410, 5-(4-Amino-2-(trifluoromethyl)imidazo[1,2-f][1,2,4]triazin-7-yl)-2-chloro-N-((1r,4r)-4-hydroxy-4-methylcyclohexyl)-4-methylbenzenesulfonamide trifluoroacetate salt]: the IC50 in test [1], in test [2] and in test [3] was below 100 nM each time.

With `Nc1nc(C(F)(F)F)nn2c(-c3cccc(S(=O)(=O)NC45CCC(CO)(C4)C5)c3)cnc12` [Example 411, 3-(4-Amino-2-(trifluoromethyl)imidazo[1,2-f][1,2,4]triazin-7-yl)-N-(4-(hydroxymethyl)bicyclo[2.1.1]hexan-1-yl)benzenesulfonamide trifluoroacetate salt], the IC50 is 100 to 500 nM in test [1], below 100 nM in test [2] and 100 to 500 nM in test [3].

On to `Cc1cc(F)c(S(=O)(=O)N[C@H]2CC[C@](C)(O)CC2)cc1-c1cnc2c(N)nc(C(F)(F)F)nn12` [Example 412, 5-(4-Amino-2-(trifluoromethyl)imidazo[1,2-f][1,2,4]triazin-7-yl)-2-fluoro-N-((1r,4r)-4-hydroxy-4-methylcyclohexyl)-4-methylbenzenesulfonamide trifluoroacetate salt], for which the IC50 in test [1] is below 100 nM; in test [2], below 100 nM; in test [3], 100 to 500 nM.

As for `Cc1cc(C)c(S(=O)(=O)N[C@H]2CC[C@](C)(O)CC2)cc1-c1cnc2c(N)nc(C(F)(F)F)nn12` [Example 413, 5-(4-Amino-2-(trifluoromethyl)imidazo[1,2-f][1,2,4]triazin-7-yl)-N-((1r,4r)-4-hydroxy-4-methylcyclohexyl)-2,4-dimethylbenzenesulfonamide trifluoroacetate salt], the concentration for half-maximal inhibition (IC50) was below 100 nM in test [1], below 100 nM in test [2] and 100 to 500 nM in test [3].

`N#CC12CCC(NS(=O)(=O)c3cc(-c4cnc5c(N)nc(C(F)(F)F)nn45)ccc3Cl)(C1)C2` [Example 414, 5-(4-Amino-2-(trifluoromethyl)imidazo[1,2-f][1,2,4]triazin-7-yl)-2-chloro-N-(4-cyanobicyclo[2.1.1]hexan-1-yl)benzenesulfonamide]: the figures for the IC50 in test [1], in test [2] and in test [3] were 100 to 500 nM, below 100 nM and below 100 nM, respectively.

Turning to `N#CC12CCC(NS(=O)(=O)c3cccc(-c4cnc5c(N)nc(C(F)(F)F)nn45)c3)(C1)C2` [Example 415, 3-(4-Amino-2-(trifluoromethyl)imidazo[1,2-f][1,2,4]triazin-7-yl)-N-(4-cyanobicyclo[2.1.1]hexan-1-yl)benzenesulfonamide trifluoroacetate salt], the half-maximal inhibitory concentration (IC50) was below 100 nM in test [1], below 100 nM in test [2] and 100 to 500 nM in test [3].

Consider `Cc1c(F)cc(S(=O)(=O)NC23CCC(C#N)(C2)C3)cc1-c1cnc2c(N)nc(C(F)(F)F)nn12` [Example 416, 3-(4-Amino-2-(trifluoromethyl)imidazo[1,2-f][1,2,4]triazin-7-yl)-N-(4-cyanobicyclo[2.1.1]hexan-1-yl)-5-fluoro-4-methylbenzenesulfonamide trifluoroacetate salt], for which the values for the IC50 in test [1], in test [2] and in test [3] were below 100 nM, below 100 nM and 100 to 500 nM, respectively.

`N#CC12CCC(NS(=O)(=O)c3cc(-c4cnc5c(N)nc(C(F)(F)F)nn45)ccc3F)(C1)C2` [Example 417, 5-(4-Amino-2-(trifluoromethyl)imidazo[1,2-f][1,2,4]triazin-7-yl)-N-(4-cyanobicyclo[2.1.1]hexan-1-yl)-2-fluorobenzenesulfonamide trifluoroacetate salt]: the figures for the 50% inhibitory concentration (IC50) in test [1], in test [2] and in test [3] were 500 to 1000 nM, below 100 nM and 100 to 500 nM, respectively.

Consider `Nc1nc(C(F)(F)F)nn2c(-c3ccc(F)c(S(=O)(=O)NC45CCC(CO)(C4)C5)c3)cnc12` [Example 418, 5-(4-Amino-2-(trifluoromethyl)imidazo[1,2-f][1,2,4]triazin-7-yl)-2-fluoro-N-(4-(hydroxymethyl)bicyclo[2.1.1]hexan-1-yl)benzenesulfonamide], for which the values for the IC50 in test [1], in test [2] and in test [3] were above 1000 nM, below 100 nM and 100 to 500 nM, respectively.

Turning to `C[C@]1(O)CC[C@H](NS(=O)(=O)c2cc(-c3cnc4c(N)nc(-c5ccccc5F)cn34)ccc2F)CC1` [Example 421, 5-(8-amino-6-(2-fluorophenyl)imidazo[1,2-a]pyrazin-3-yl)-2-fluoro-N-((1r,4r)-4-hydroxy-4-methylcyclohexyl)benzenesulfonamide], the IC50 in test [1], in test [2] and in test [3] was below 100 nM each time.

`C[C@]1(O)CC[C@H](NS(=O)(=O)c2cc(-c3cnc4c(N)nc(-c5ccncc5F)cn34)ccc2F)CC1` [Example 422, 5-(8-amino-6-(3-fluoropyridin-4-yl)imidazo[1,2-a]pyrazin-3-yl)-2-fluoro-N-((1r,4r)-4-hydroxy-4-methylcyclohexyl)benzenesulfonamide]: the IC50 in test [1], in test [2] and in test [3] was below 100 nM each time.
